Experimental data: patent US8703791B2, “3-carboxypropyl-aminotetralin derivatives and related compounds as mu opioid receptor antagonists” (Theravance, Inc., priority 2007, dated 2014)
Read-outs that look alike come from different tables or passages of the source.

Assays:
human mu opioid receptor [1] = molecular target: T1, human mu opioid receptor (Homo sapiens, UniProt P35372); experiment: Human mu [35S]GTPγS nucleotide exchange assay in membranes from CHO-K1 cells; format: biochemical; conditions: read-out: intrinsic activity (IA), bound [35S]GTPγS relative to DAMGO (IA=100)
[2] = system: loperamide-induced delayed gastric emptying; experiment: Rat gastric emptying assay, reversal of loperamide-induced delayed gastric emptying; format: in vivo; conditions: administered orally, loperamide 1 mg/kg subcutaneous
human mu opioid receptor [3] = molecular target: T1, human mu opioid receptor; experiment: Radioligand binding assay, [3H]-Diprenorphine displacement, human mu opioid receptor
[4] = expressed as a percentage of activation by DAMGO

T1 sequence (P35372 whole entry): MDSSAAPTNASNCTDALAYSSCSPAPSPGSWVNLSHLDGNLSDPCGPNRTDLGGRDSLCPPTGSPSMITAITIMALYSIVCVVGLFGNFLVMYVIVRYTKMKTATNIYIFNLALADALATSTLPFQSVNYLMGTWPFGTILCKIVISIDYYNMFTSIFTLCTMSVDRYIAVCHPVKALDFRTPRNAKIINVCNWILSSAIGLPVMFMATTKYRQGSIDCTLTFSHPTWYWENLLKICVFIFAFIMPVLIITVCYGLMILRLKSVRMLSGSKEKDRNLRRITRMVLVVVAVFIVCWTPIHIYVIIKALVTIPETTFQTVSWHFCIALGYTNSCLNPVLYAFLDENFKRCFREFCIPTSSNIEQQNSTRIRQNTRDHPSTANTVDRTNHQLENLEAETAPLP

## CCC1(CC)c2cc(C(N)=O)ccc2C[C@H](OC)[C@H]1NCC[C@H](CC1CCCCC1)C(=O)OC [Example 2, (S)-4-((2S,3S)-7-Carbamoyl-1,1-diethyl-3-methoxy-1,2,3,4-tetrahydro-naphthalen-2-ylamino)-2-cyclohexylmethyl-butyric acid methyl ester]
Human mu opioid receptor [1]; [4]
  Emax: -5%

## CCC1(CC)c2cc(C(N)=O)ccc2CC(OC)[C@H]1NCC[C@@H](CC1CCCCC1)C(=O)OC (mixture of isomers) [Example 6, (R)-4-((2S,3SR)-7-Carbamoyl-1,1-diethyl-3-methoxy-1,2,3,4-tetrahydro-naphthalen-2-ylamino)-2-cyclohexylmethyl-butyric acid methyl ester]
Human mu opioid receptor [1]; [4]
  Emax: 19%

## CCC1(CC)c2cc(C(N)=O)ccc2C[C@H](OC)[C@H]1NCC[C@H](CC1CCCCC1)C(=O)O [Example 1, (S)-4-((2S,3S)-7-Carbamoyl-1,1-diethyl-3-methoxy-1,2,3,4-tetrahydro-naphthalen-2-ylamino)-2-cyclohexylmethyl-butyric acid]
[2]
  ID50, dose required for 50% reversal of the effects of loperamide: 0.09 mg/kg

## CCC1(CC)c2cc(C(N)=O)ccc2C[C@H](OC)[C@H]1NCC[C@@H](CC1CCCCC1)C(=O)O [Example 10-G, (R)-4-((2S,3S)-7-Carbamoyl-1,1-diethyl-3-methoxy-1,2,3,4-tetrahydro-naphthalen-2-ylamino)-2-cyclohexylmethyl-butyric acid]
[2]
  ID50, dose required for 50% reversal of the effects of loperamide: 0.12 mg/kg
Human mu opioid receptor [1]
  Emax: 7%
Human mu opioid receptor [3]
  Ki: 0.251 nM

## CCC1(CC)c2cc(O)ccc2C[C@H](OC)[C@H]1NCC[C@H](CC1CCCCC1)C(=O)O [Example 12, (S)-2-Cyclohexylmethyl-4-((2S,3S)-1,1-diethyl-7-hydroxy-3-methoxy-1,2,3,4-tetrahydro-naphthalen-2-ylamino)-butyric acid]
[2]
  ID50, dose required for 50% reversal of the effects of loperamide: 0.05 mg/kg
Human mu opioid receptor [1]
  Emax: -5%
Human mu opioid receptor [3]
  Ki: 0.2 nM

## CCC1(CC)c2cc(C(N)=O)ccc2C[C@H](OC)[C@H]1NCC[C@H](CC(C)C)C(=O)OC [Example 7-A, (S)-2-[2-((2S,3S)-7-Carbamoyl-1,1-diethyl-3-methoxy-1,2,3,4-tetrahydro-naphthalen-2-ylamino)-ethyl]-4-methyl-pentanoic acid methyl ester]
Human mu opioid receptor [1]
  Emax: 8%

## CCCCC[C@@H](CCN[C@@H]1[C@@H](OC)Cc2ccc(C(N)=O)cc2C1(CC)CC)C(=O)O [Example 9, (S)-2-[2-((2S,3S)-7-Carbamoyl-1,1-diethyl-3-methoxy-1,2,3,4-tetrahydro-naphthalen-2-ylamino)-ethyl]-heptanoic acid]
[2]
  ID50, dose required for 50% reversal of the effects of loperamide: 0.10 mg/kg
Human mu opioid receptor [1]; [4]
  Emax: -2%
Human mu opioid receptor [3]; [3H]-Diprenorphine 0.5 nM, CHO-K1 membranes, read-out: pKi at the human mu opioid receptor (converted)
  Ki: 0.631 nM

## CCC1(CC)c2cc(C(N)=O)ccc2C[C@@H](OC)[C@@H]1NCC[C@@H](CC1CCCCC1)C(=O)OC [Example 5, (R)-4-((2R,3R)-7-Carbamoyl-1,1-diethyl-3-methoxy-1,2,3,4-tetrahydro-naphthalen-2-ylamino)-2-cyclohexylmethyl-butyric acid methyl ester]
Human mu opioid receptor [1]; [4]
  Emax: 17%
